In patent US11084826B2, “RSV antiviral pyrazolo- and triazolo-pyrimidine compounds” (Janssen Sciences Ireland Unlimited Company, priority 2015, dated 2021):
Where two headings read alike, the source gives them in different places.

How the values were obtained:
[1] = Cytotoxicity in HeLa cells, ATP content measured with the ATPlite kit; type: cell-based; conditions: human, TOX HELA pCC50
[2] = test system: HeLa cells; experiment: as above; type: cell-based
[3] = test system: rgRSV224 virus; experiment: Antiviral activity: inhibition of rgRSV224 (GFP-expressing RSV) replication in HeLa cells, GFP expression read-out; type: cell-based, respiratory syncytial virus (RSV); conditions: for RSV HELA pEC50: rgRSV224 virus (MOI=1) in HeLa cells, GFP read-out
Method in brief: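 EC50 is the 50% inhibitory concentration for GFP expression, read by laser microscopy three days after rgRSV224 infection (MOI=1) of HeLa cells (3,000/well). Compounds were tested as 9 serial 4-fold dilutions at 0.05% DMSO, and cells were incubated at 37° C under 5% CO2.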

C[C@@H]1CCCCCN1C(=O)c1cc(C2CCC2)n2nc(-c3ccc(/C=C/C(=O)O)cc3F)cc2n1 [Compound M19]
CC50 at 3 days [1]: 38.9 µM
TOX HELA pCC50 ([2]; human, 3 days): 4.49
EC50 ([3]; human respiratory syncytial virus, HeLa, read-out: RSV HELA pEC50, rgRSV224 virus (MOI=1) in HeLa cells, GFP read-out (converted)): 0.0302 µM
RSV HELA pEC50 [3]: 7.72

C[C@@H]1CCCCCN1C(=O)c1cc(C2(C)CC2)n2nc(-c3cccc(/C=C/C(=O)O)c3F)cc2n1 [Compound M22]
TOX HELA pCC50 [2]: 4.05
RSV HELA pEC50 [3]: 7.34

CCc1cc(C(=O)N2CCCCC[C@H]2C)nc2cc(-c3cccc(/C=C\C(=O)O)c3F)nn12 [Compound M31]
TOX HELA pCC50 [2]: <4
RSV HELA pEC50 [3]: 6.13

CCc1cc(C(=O)N2CCCCC[C@H]2C)nc2cc(-c3ccc(OC)c(/C=C/C(=O)O)c3F)nn12 [Compound M34]
TOX HELA pCC50 [2]: <4
RSV HELA pEC50 [3]: 7.04

C[C@@H]1c2ccccc2CCN1C(=O)c1cc(C2(C)CC2)n2nc(-c3cccc(/C=C/C(=O)O)c3F)cc2n1 [Compound M36]
TOX HELA pCC50 [2]: 4.26
RSV HELA pEC50 [3]: 7.99

CN1CCCCCN1C(=O)c1cc(C2(C)CC2)n2nc(-c3cccc(/C=C/C(=O)O)c3F)cc2n1 [Compound M37]
TOX HELA pCC50 [2]: <4
RSV HELA pEC50 [3]: 7.10

CCCC(C)N(C)C(=O)c1cc(CC)n2nc(-c3cccc(/C=C/C(=O)O)c3F)cc2n1 (stereo not shown) [Compound M38]
TOX HELA pCC50 [2]: <4
RSV HELA pEC50 [3]: 6.65

CCc1cc(C(=O)N2CCCC3(CC=CC3)C2C)nc2cc(-c3cccc(/C=C/C(=O)O)c3F)nn12 (stereo not shown) [Compound M39]
TOX HELA pCC50 [2]: <4
RSV HELA pEC50 [3]: 6.19

CCc1cc(C(=O)N2CCCCCN2C)nc2cc(-c3cccc(/C=C/C(=O)O)c3F)nn12 [Compound M40]
TOX HELA pCC50 [2]: <4
RSV HELA pEC50 [3]: 6.37

CCc1cc(C(=O)N2CCn3cccc3C2C)nc2cc(-c3cccc(/C=C/C(=O)O)c3F)nn12 (stereo not shown) [Compound M45]
TOX HELA pCC50 [2]: <4
RSV HELA pEC50 [3]: 7.54

CC1c2ccsc2CCN1C(=O)c1cc(C2(C)CC2)n2nc(-c3cccc(/C=C/C(=O)O)c3F)cc2n1 (stereo not shown) [Compound M47]
TOX HELA pCC50 [2]: 4.07
RSV HELA pEC50 [3]: 7.87

CCc1cc(C(=O)N2CCc3ccccc3[C@H]2C)nc2cc(-c3ccc(C4C[C@H]4C(=O)O)cc3F)nn12 (stereo partly shown) [Compound O15]
TOX HELA pCC50 [2]: 4.32
RSV HELA pEC50 [3]: 7.91

C[C@@H]1CCCCCN1C(=O)c1cc(C2(C)COC2)n2nc(-c3ccc(C4C[C@H]4C(=O)O)cc3F)cc2n1 (stereo partly shown) [Compound O17]
TOX HELA pCC50 [2]: 4.11
RSV HELA pEC50 [3]: 7.29

CCc1cc(C(=O)N2CCCCC[C@H]2C)nc2cc(-c3ccc(-n4cc(C(=O)O)cn4)cc3F)nn12 [Compound W2]
CC50 at 3 days [1]: > 25.1 µM
TOX HELA pCC50 ([2]; human, 3 days): 4.31

CC(C)Cc1cc(C(=O)N2CCCCC[C@H]2C)nc2cc(-c3ccc(-n4cc(C(=O)O)cn4)cc3F)nn12 [Compound W13]
TOX HELA pCC50 [2]: 4.38
RSV HELA pEC50 [3]: 7.45

CC(C)Cc1cc(C(=O)N2CCCCC[C@H]2C)nc2cc(-c3ccc(N4CC[C@H](C(=O)O)C4)cc3F)nn12 [Compound W14]
TOX HELA pCC50 [2]: 4.29
RSV HELA pEC50 [3]: 7.53
